Measurements taken from patent US20100144683A1, “METHODS FOR GENERATING MAMMALIAN MODELS OF ATOPIC DISEASES, AND SCREENING FOR THEIR TREATMENT” (ASSOCIATION POUR LA RECHERCHE A L'IGBMC (ARI), priority 2006, published 2010).
Entries after “also recorded” stand apart in the source; their conditions may differ.

Tests used:
TSLP [1] = test: TSLP immunohistochemistry on ear and dorsal skin sections; format: in vivo, mouse; conditions: MC903-treated ear and dorsal skin; D4
Source text: The white arrowhead points to autofluorescent erythrocytes, and white arrows point to the dermal/epidermal junction. (Scale bar, 50 μm).

TSLP [2] = test: TSLP RNA level (Q-PCR) in skin and organs after topical application of NR agonists; format: in vivo, mouse
Procedure: Four nmoles of ligands dissolved in ethanol were topically applied to whole ears of 6-8-week-old female CD1 wildtype (WT) mice for 4 consecutive days (D1 to D4), and TSLP RNA levels were determined on day 5.
(§1) 1α,25-(OH)2D3, or MC903 and ethanol (vehicle) were applied to WT mouse right and left ears, respectively. Two shaved areas (1 cm^2 each) of dorsal skin were also treated with MC903 or ethanol.

cytokine RNA = test: Cytokine RNA levels (Q-PCR) in treated ears; format: in vivo, mouse; conditions: MC903 4 nmoles daily on ears; D16
[3] = test system: ears of CD1 wildtype (WT) mice; test: AD-like phenotype upon long-term ear topical treatment (appearance, histology, IHC); format: in vivo, mouse
Source text: White arrows point to the dermal/epidermal junction. FIGS. 2a and b show the ear appearance at day 17 after ethanol and MC903 treatment, respectively. FIGS. 2c and d show hematoxylin and eosin-stained (HE) ear sections of ethanol- and MC903-treated mice at day 17, respectively. Eosinophil-selective cytoplasmic red staining is pointed by arrows in the inset of (d). FIG. 2 u show hematoxylin and eosin-stained (HE) ear sections of ethanol- and 1α,25(OH)2D3 treated mice every second day, at a dose of 0.25 nmole, at day 18 (D18). FIGS. 2 e to n show the result of IHC performed on ear sections from ethanol- or MC903-treated mice at D17, with antibodies against GR1 (e and f), CD3 (g and h), CD4 (i and j), CD8 (k and l) and CD11c (m and n). Yellow color corresponds to staining of antibodies, whereas blue corresponds to DAPI staining of nuclei. FIGS. 2 o and p show the Toluidin blue (TB)-staining of ear sections. Red arrows point to one of the mast cells with intense blue color in the dermis.

CYP24A1 = CYP24A1 RNA level (Q-PCR) in MC903-treated ear; format: in vivo, mouse; conditions: MC903 topically every day; D2-D4
Procedure: as §1

[4] = Calcemia and overall health upon topical application; format: in vivo; conditions: MC903 4 nmoles daily or 1α,25(OH)2D3 0.25 nmole every second day on ears, 16 days
Procedure: 1α,25-(OH)2D3, or MC903 and ethanol (vehicle) were applied to WT mouse right and left ears, respectively. Two shaved areas (1 cm^2 each) of dorsal skin were also treated with MC903 or ethanol. […]

TSLP [5] = test: TSLP RNA level (Q-PCR) in skin and organs after topical application of NR agonists; format: in vivo, mouse; conditions: increasing doses (MC903: 0.4, 1 or 4 nmoles per ear)
RXR/VDR heterodimers = molecular target: T1, RXR/VDR heterodimers (Mus musculus, UniProt P48281); test: MC903 topical treatment of RXRαβep-/- mice, TSLP RNA (Q-PCR); format: in vivo; conditions: D4, versus RXRαβ CT
T1 construct: from tissue; host or cells: mouse ear skin (epidermal keratinocytes), topical treatment in vivo
T1 sequence (P48281 1-422): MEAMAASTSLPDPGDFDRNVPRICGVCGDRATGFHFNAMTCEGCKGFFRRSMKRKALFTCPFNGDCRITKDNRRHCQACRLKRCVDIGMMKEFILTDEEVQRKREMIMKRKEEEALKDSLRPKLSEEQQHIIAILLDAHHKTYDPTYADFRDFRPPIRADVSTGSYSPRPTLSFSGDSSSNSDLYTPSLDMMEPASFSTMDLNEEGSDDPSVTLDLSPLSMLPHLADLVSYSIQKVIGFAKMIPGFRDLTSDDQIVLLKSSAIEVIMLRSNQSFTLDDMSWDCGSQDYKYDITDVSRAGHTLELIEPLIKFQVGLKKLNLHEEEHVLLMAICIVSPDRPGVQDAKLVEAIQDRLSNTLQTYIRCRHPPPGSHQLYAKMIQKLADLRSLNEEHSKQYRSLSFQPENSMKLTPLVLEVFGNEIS
Source text: To examine whether the effect of MC903 was transduced through RXR/VDR heterodimers, ears of RXRαβ^ep−/− mice (tamoxifen-treated K14-Cre-ERT2^(tg/0)/RXRαβ^L2/L2/RXRβ^L2/L2; LI et al., 2005, abovementioned), as well as their control littermates (RXRαβ CT), were topically-treated with MC903.

TSLP [6] = test: Serum TSLP levels after topical application; format: in vivo, mouse; conditions: MC903 topical; D2-D4, undetectable at D0
Procedure: as §1

[7] = test system: OVA-induced asthma mouse model; test: Ovalbumin (OVA)-induced asthma mouse model with ear topical MC903; format: in vivo; conditions: MC903 1.125 nmole on each ear every other day, day 0 to 21, day 22
Procedure: An experimental ovalbumin (OVA)-induced asthma mouse model was used. Mice were intraperitoneally injected with 50 μg OVA adsorbed on 2 mg aluminium hydroxide (Alum) on days 0 and 7, and were then challenged on days 18, 19, 20 and 21 by intranasal instillations of 10 μg OVA. As controls, mice were intraperitoneally injected with Alum, and receive intranasal instillations of saline. These mice were topically treated with either ethanol (as a control) or MC903 (1.125 nmole) on each ear every other day from day 0 to day 21 to generate an ear AD. Assessment of respiratory function, collection of bronchoalveolar lavage (BAL) and lung were performed on day 22. […] Aerosolized saline was used as control.

eosinophils = test: Blood and tissue eosinophilia; format: in vivo, mouse; conditions: MC903-treated mice
Source text: FIG. 2 s show the hematoxylin and eosin-stained sections of ear draining lymph node and liver of ethanol- and MC903-treated mice at D17. Yellow arrows point to three of many eosinophils (red cytoplasmic staining) in sections of lymph node and liver of MC903-treated mice. (Scale bars, 50 μm).

VDR = test: MC903 topical treatment of VDR control, VDRep-/- and VDR-/- mice; format: in vivo, mouse
Source text: To investigate whether the MC903-induced TSLP expression and appearance of an AD-like skin inflammation were mediated through VDR, MC903 was topically applied on ears of “floxed” VDR control (CT) mice (VDR^L2/L2 mice, in which both VDR alleles bear LoxP sites) and of their VDR^ep−/− littermates [K14-Cre^(tg/0)/VDR^L2/L2 mice in which the VDR alleles are selectively ablated in keratinocytes and which were obtained by crossing)K14-Cre^(tg/0) transgenic mice (LI et al., Development, vol. 128, p: 675-688, 2001) with floxed VDR^L2/L2 mice (our unpublished data)].
The FIGS. 3 a and b show the appearance of MC903-treated ears of VDR control (CT) (a) and VDR^ep−/− mice (b) at D17. White arrows in (a) points to lesioned skin.
The FIGS. 3 c and d show Hematoxylin and eosin-stained ear sections. Yellow arrows in inset of (c) point to three of many eosinophils (red cytoplasmic staining) in MC903-treated CT skin. Black arrows point to the dermal/epidermal junction. hf, hair follicle; u, utriculi (resulting from hair follicle degeneration in VDR^ep−/− mice). (Scale bar, 50 μm).

serum IgE and IgG = test: Serum IgE and IgG levels (ELISA); format: in vivo, mouse; conditions: MC903 topically for 16 days on ears

In the case of “26,27-cyclo-22-ene-1α,24S-dihydroxyvitamin D3 [MC903]”, the “TSLP expression by immunohistochemistry in epidermis” value (TSLP [1]) is reported as “readily detected”, the “TSLP RNA in treated dorsal skin” value (TSLP [2]; MC903 on shaved dorsal skin (1 cm^2), D2-D4) is reported as “increased” and the “TSLP RNA levels in treated right ear” value (TSLP [2]; MC903 topically every day on right ear of WT mice, D2, D3, D4, ethanol on left ear) is reported as “increased in right ears, and further increased on D3 and D4”. For the same substance, the “TSLP transcripts in other organs (lung, thymus, salivary gland, tongue, colon, spleen, lymph node, liver)” value (TSLP [2]; MC903 topically on ears, D5) was “no increase”, the “TSLP transcripts in treated ears, long-term” value (cytokine RNA) was “markedly increased” and the “Th2-type cytokine transcripts (IL-4, IL-5, IL-13, IL-31, IL10 and IL-6)” value (cytokine RNA) was “significantly increased”. The “expression of Th1-type cytokine IFN-γ” value (cytokine RNA) was “enhanced”, the “expression of Th1-type cytokine TNF-β” value (cytokine RNA) was “unchanged” and the ear appearance ([3]; MC903 4 nmoles daily or 1α,25(OH)2D3 0.25 nmole every second day, from D5, D17) was “reddening and swelling, that worsened with time; also recorded: red, scaly, swollen and crusted”. For the same substance, the “ear histology (hematoxylin/eosin)” value ([3]; MC903 4 nmoles daily, D17, 1α,25-(OH)2D3 0.25 nmole every other day, D18) was “epidermal hyperplasia and a heavy dermal cell infiltrate”, the “CD11c+ dermal dendritic cells (IHC)” value ([3]; MC903-treated ears, D17) was “large increase” and the “GR1-positive cells in dermis (IHC)” value ([3]; MC903-treated ears, D17) was “large number of positive cells”. For the same substance, the “T lymphocytes (CD3+) in dermis (IHC)” value ([3]; MC903-treated ears, D17) was “Numerous”, the “increase of mast cells in the dermis” value ([3]; MC903-treated ears, D17, Toluidin blue staining) was 4 fold and the “CYP24A1 transcripts in treated ear” value (CYP24A1) was “increased”. The “hypercalcemia, overall health, weight loss” value [4] was “No hypercalcemia or overall health impairment and weight loss”, the “dose dependence of TSLP transcripts” value (TSLP [5]) was “dose-dependent increase” and the “induction of TSLP in RXRαβep-/- skin” value (RXR/VDR heterodimers) was “severely reduced”. For the same substance, the “serum TSLP levels” value (TSLP [6]) was “increased”, the BAL cell numbers ([7]; OVA model) was “higher BAL cell numbers” and the “airway epithelium hypertrophy (lung sections)” value ([7]; OVA model) was “increased hypertrophy in airway epithelium”. For the same substance, the “lung inflammatory infiltration (lung sections)” value ([7]; OVA model) was “higher perivascular and peribronchial lung inflammatory infiltrations; also recorded: enhanced airway inflammation”, the “airway hyperresponsiveness (AHR), whole-body plethysmography” value ([7]; OVA sensitized and challenged) was “increased airway hyperresponsiveness” and the “eosinophils in ear-draining lymph nodes, liver and spleen” value (eosinophils; D16) was “increased number of eosinophils”. The “blood eosinophils (differential blood cell counts)” value (eosinophils; ethanol-treated mice 204±134) was 693±220 cells/μl, the “skin inflammation in VDR-/- mice” value (VDR) was “no AD-like skin inflammation” and the “TSLP expression (Q-PCR) in skin of VDR CT mice” value (VDR; D4) was “strongly induced”. For the same substance, the “TSLP expression (Q-PCR) in skin of VDR-/- mice” value (VDR; D4) was “not at all”, the “TSLP expression (Q-PCR) in skin of VDRep-/- mutants” value (VDR; D4) was “weakly increased” and the “ear inflammation in VDR CT mice” value (VDR; D17) was “AD-like inflammation was obvious”. For the same substance, the “ear inflammation in VDRep-/- mice” value (VDR; D17) was “did not show any sign of inflammation” and the “serum IgE and IgG levels” value (serum IgE and IgG) was “increased”.
